Where a name gives a salt, the structure may show the parent alone. Read-outs that look alike come from different tables or passages of the source.
Experiments:
CHO cells [1] = tested on: CHO cells
CHO cells [2] = assay: Growth of CHO cells (cell counts at 24, 48 and 72 h); details: for inhibition at 1000 µM / inhibition at 10000 µM / inhibition at 3000 µM: Cricetulus griseus, CHO, read-out: growth inhibition; for time within which growth was strongly inhibited: 1 mM and 3 mM
Protocol: Cells were plated at 1.5×10^5 cells/60-mm dish; 24 hours later, the medium was removed, and new media with or without 0.05 to 10 mM final concentrations of 2-Furoic acid were added. Cell counts were determined at 24, 48 and 72 h after the addition of 2-Furoic acid; each point is the average of triplicate measurements from 3 cultures.

LD-50 = details: in vivo
[3] = tested on: Human Foreskin (HF) cells infected with HSV-2-strain G; assay type: cell-based
virally infected cells = assay: Activity against virally infected cells relative to 2-thiophenecarboxylic acid; assay type: cell-based
[4] = tested on: cancer cells in tissue culture; assay: Activity against cancer cells in tissue culture relative to 2-thiophenecarboxylic acid
LTA4 hydrolase = LTA4 hydrolase (Homo sapiens, UniProt P09960); details: cited from earlier work
Sequence of LTA4 hydrolase (P09960 whole entry): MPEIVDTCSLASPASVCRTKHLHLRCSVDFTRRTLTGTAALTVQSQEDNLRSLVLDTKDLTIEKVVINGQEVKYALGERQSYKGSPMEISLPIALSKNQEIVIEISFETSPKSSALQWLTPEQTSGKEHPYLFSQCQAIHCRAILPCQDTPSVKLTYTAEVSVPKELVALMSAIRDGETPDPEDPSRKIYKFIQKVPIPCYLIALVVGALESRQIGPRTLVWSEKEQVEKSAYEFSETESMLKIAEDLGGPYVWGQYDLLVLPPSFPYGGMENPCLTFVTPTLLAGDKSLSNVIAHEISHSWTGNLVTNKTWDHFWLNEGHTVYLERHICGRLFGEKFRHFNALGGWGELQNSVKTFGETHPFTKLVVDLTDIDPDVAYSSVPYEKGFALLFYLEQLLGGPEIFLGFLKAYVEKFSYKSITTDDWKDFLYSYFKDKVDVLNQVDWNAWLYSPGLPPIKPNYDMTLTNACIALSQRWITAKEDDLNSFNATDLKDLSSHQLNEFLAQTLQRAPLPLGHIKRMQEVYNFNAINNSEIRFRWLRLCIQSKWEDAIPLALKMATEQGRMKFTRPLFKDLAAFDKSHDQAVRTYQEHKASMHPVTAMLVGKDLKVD

[5] = tested on: human breast adenocarcinoma MDA-468 cell; assay: Growth and viability of breast adenocarcinoma MDA-468 cells; assay type: cell-based; details: 50 μM
Protocol: These floating cells were not viable. Within 48 h of treatment there was greater than 90% decrease in cell number.

[6] = tested on: many different cancer cell lines; assay: Cytotoxicity in cancer cell lines in vitro; details: uM concentrations

In the case of `NNC(=O)c1cccs1` [2-TCAH, 2-thiophenecarboxylic acid hydrazide], the “toxic effects on the cells” value (CHO cells [1]) is reported as “significant toxic effects”, the “time within which growth was inhibited in a dose-dependent fashion” value (CHO cells [2]; CHO cells) is reported as at most 24 h and the inhibition at 1000 µM (CHO cells [2]; 72 h) is reported as about 65%. The inhibition at 10000 µM (CHO cells [2]; 72 h) was about 90%.

For `O=C(O)c1ccco1` [2-Furoic acid], the “toxic effects on the cells” value (CHO cells [1]) was “no significant toxic effects”, the “time within which growth was inhibited in a dose-dependent fashion” value (CHO cells [2]; CHO cells, 3 to 10 mM) was at most 24 h and the inhibition at 3000 µM (CHO cells [2]; 72 h) was about 20%. For the same compound, the inhibition at 10000 µM (CHO cells [2]; 72 h) was about 40%.

`O=C(O)c1cccs1` [2-TH acid, 2-thiophenecarboxylic acid] gave an LD-50 (LD-50) of 30 grams/70 Kg.

With `O=C(O)c1ccccn1` [picolinic acid] the “effect on infected cells” value [3] was “cause apoptosis of HF infected cells”.

In the case of `CCCCc1csc(C(=O)NN)c1Cl`, the “times more active than 2-thiophenecarboxylic acid” value (virally infected cells) is reported as 7-10 times and the “times more active than 2-thiophenecarboxylic acid” value [4] is reported as 7-10 times.

For `C[C@H](CS)C(=O)N1CCC[C@H]1C(=O)O` [Captopril], the “inhibition of LTA4 hydrolase, concentration range” value (LTA4 hydrolase) is given as “low uM range”.

For `NN.O=C(O)c1sc(Cl)c(Cl)c1Cl` [3,4,5-TTAH], the “cytotoxicity and cell death, share of CHO cells” value (CHO cells [1]; 500 uM, 24-72 hours exposure) was “greater than 95%”, the “detached cells destroyed by the agent” value (CHO cells [1]; 500 uM, 72 h, trypan blue dye exclusion test) was over 99.9% and the “growth of CHO cells” value (CHO cells [2]; 500 uM) was “strongly inhibited”.

With `O=C(O)c1sc(Cl)c(Cl)c1Cl` [3,4,5-TTA] the “time within which growth was strongly inhibited” value (CHO cells [2]; CHO cells) was at most 6 h, the inhibition at 1000 µM (CHO cells [2]) was over 98% and the inhibition at 3000 µM (CHO cells [2]) was 100%.

With `O=C(O)c1oc(Cl)c(Cl)c1Cl` [3,4,5-TFA, 3,4,5-Trichloro-2-Furoic acid] the “cytotoxicity and cell death, share of CHO cells” value (CHO cells [1]; Chinese hamster, 3 mM) was “greater than 99%”, the “time within which growth was strongly inhibited” value (CHO cells [2]; CHO cells) was at most 12 h and the inhibition at 1000 µM (CHO cells [2]) was over 80%. The inhibition at 3000 µM (CHO cells [2]) was over 99%.

In the case of `c1ccsc1` [Thiophene, reference compound], the “effect on cell growth” value (CHO cells [2]; CHO cells, analog tested at 0.05 to 10 mM, up to 72 h) is reported as “no significant effect on cell growth”.

In the case of `CCCCc1csc(C(=O)NN)c1` [4-B-2-TAH, 4-butyl-2-Thiophenecarboxylic Acid Hydrazide], the “cell number” value ([5]; after 12 hours of treatment) is reported as “no further increase in cell number”, the “decrease in cell number” value ([5]; within 48 h of treatment) is reported as “greater than 90%” and the “cytotoxic effects” value [6] is reported as “pronounced cytotoxic effects”.

Reference: patent publication US6803379B2, “PHARMACOLOGICAL AGENTS AND METHODS OF TREATMENT THAT INACTIVATE PATHOGENIC PROKARYOTIC AND EUKARYOTIC CELLS AND VIRUSES BY ATTACKING HIGHLY CONSERVED DOMAINS IN STRUCTURAL METALLOPROTEIN AND METALLOENZYME TARGETS” (priority 2002, dated 2004)
